Laboratory results: PubChem BioAssay AID264 (DTP/NCI, 2004)
Values joined by “and” are separate entries in the source; they are usually repeats but may differ in a detail not shown here. Equal values may be shown once. Records with an inconclusive call do not appear.

Tested on: nude mice, LX-1 lung xenograft intrarenal, tumor weight T/C
Test: NCI In Vivo Anticancer Drug Screen. Data for tumor model Human Lung LX-1 Xenograft (intrarenal inoculation) in NU/NU Swiss (nude) mice
Conditions: endpoint: mean tumor weight change, higher = larger tumour
Outline: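 In vivo, transplantable tumor; compound vs vehicle arms; tumor size measured; value = T/C.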

[1] = dose: 300.0 mg/kg/injection, schedule: Q04DX003 (sc), vehicle: saline with Tween-80
[2] = dose: 600.0 mg/kg/injection, schedule: Q04DX003 (sc), vehicle: saline with Tween-80
[3] = dose: 1200.0 mg/kg/injection, schedule: Q04DX003 (sc), vehicle: saline with Tween-80
[4] = dose: 2400.0 mg/kg/injection, schedule: Q04DX003 (sc), vehicle: saline with Tween-80
[5] = dose: 200.0 mg/kg/injection, schedule: Q04DX003 (sc), vehicle: Klucel (hydroxypropylcellulose) (HPC)
[6] = dose: 400.0 mg/kg/injection, schedule: Q04DX003 (sc), vehicle: Klucel (hydroxypropylcellulose) (HPC)
[7] = dose: 75.0 mg/kg/injection, schedule: Q04DX003 (sc), vehicle: saline
[8] = dose: 25.0 mg/kg/injection, schedule: Q01DX010 (sc), vehicle: saline with Tween-80
[9] = dose: 400.0 mg/kg/injection, schedule: Q04DX003 (sc), vehicle: saline with Tween-80

`Cn1ccc(=Nc2ccc(NC(=O)c3ccc(N=c4ccn(C)c5ccc([N+](=O)[O-])cc45)cc3[N+](=O)[O-])cc2)cc1` was tested, and the T/C [1] was 93 % of control, the T/C [2] was 75 % of control and the T/C [3] was 86 % of control. For the same molecule, the T/C [4] was 83 % of control.

In the case of `O=C1CC2(C(=O)N1CN1CCCCC1)c1ccccc1-c1ccccc12`, the T/C [5] is reported as 224 % of control and the T/C [6] is reported as 170 % of control.

With `OCCO` the T/C (dose: 8.0 % in 0.5 ml injection vol, schedule: Q04DX003 (sc), vehicle: water) was 121 % of control and the T/C (dose: 16.0 % in 0.5 ml injection vol, schedule: Q04DX003 (sc), vehicle: water) was 108 % of control.

For `CCOC(=O)C(N)C[S][Sn]([CH3])([CH3])[Cl]` (stereo not drawn), the T/C (dose: 18.75 mg/kg/injection, schedule: Q04DX003 (sc), vehicle: saline) was 52 % of control, the T/C (dose: 37.5 mg/kg/injection, schedule: Q04DX003 (sc), vehicle: saline) was 57 % of control and the T/C [7] was 54 % of control.

For `OC1CCCC2CCC[N-]C12.OC1CCCC2CCC[N-]C12.[Mn+2]` (stereo not drawn), the T/C (dose: 300.0 mg/kg/injection, schedule: Q04DX003 (sc), vehicle: Klucel (hydroxypropylcellulose) (HPC)) was 95 % of control, the T/C (dose: 600.0 mg/kg/injection, schedule: Q04DX003 (sc), vehicle: Klucel (hydroxypropylcellulose) (HPC)) was 52 % of control and the T/C (dose: 1200.0 mg/kg/injection, schedule: Q04DX003 (sc), vehicle: Klucel (hydroxypropylcellulose) (HPC)) was 46 % of control. The T/C (dose: 2400.0 mg/kg/injection, schedule: Q04DX003 (sc), vehicle: Klucel (hydroxypropylcellulose) (HPC)) was 63 % of control.

For `O=c1cc(CCl)[nH]nc1CCl`, the T/C (dose: 6.25 mg/kg/injection, schedule: Q01DX010 (sc), vehicle: saline with Tween-80) was 92 % of control, the T/C (dose: 12.5 mg/kg/injection, schedule: Q01DX010 (sc), vehicle: saline with Tween-80) was 55 % of control and the T/C [8] was 49 % of control. The T/C (dose: 50.0 mg/kg/injection, schedule: Q01DX010 (sc), vehicle: saline with Tween-80) was 106 % of control.

In the case of `COC1C(C)OC(OC2CC(C)(O)Cc3cc4c(c(O)c32)C(=O)c2c(O)cc3c(c2C4=O)OC2OC3(C)C(O)C(N(C)C)C2O)C(OC)C1(C)OC` (stereo not drawn), the T/C (dose: 5.0 mg/kg/injection, schedule: Q04DX003 (sc), vehicle: Klucel (hydroxypropylcellulose) (HPC)) is reported as 118 % of control, the T/C (dose: 20.0 mg/kg/injection, schedule: Q04DX003 (sc), vehicle: Klucel (hydroxypropylcellulose) (HPC)) is reported as 60 % of control and the T/C (dose: 40.0 mg/kg/injection, schedule: Q04DX003 (sc), vehicle: Klucel (hydroxypropylcellulose) (HPC)) is reported as 98 % of control.

`OC1CCCC2CCCNC12` (stereo not drawn) was tested, and the T/C (dose: 37.5 mg/kg/injection, schedule: Q04DX003 (sc), vehicle: saline with Tween-80) was 81 % of control, the T/C (dose: 75.0 mg/kg/injection, schedule: Q04DX003 (sc), vehicle: saline with Tween-80) was 93 % of control and the T/C (dose: 150.0 mg/kg/injection, schedule: Q04DX003 (sc), vehicle: saline with Tween-80) was 75 % of control.

With `CC(=O)C1(O)Cc2c(O)c3c(c(O)c2C(OC2CC(N)C(O)C(C)O2)C1)C(=O)c1ccccc1C3=O` (stereo not drawn) the T/C (dose: 0.5 mg/kg/injection, schedule: Q04DX003 (sc), vehicle: water) was 120 % of control.

With `CN(C)N=Nc1cccc(C(N)=O)c1` the T/C (dose: 25.0 mg/kg/injection, schedule: Q04DX003 (sc), vehicle: Klucel (hydroxypropylcellulose) (HPC)) was 72 % of control, the T/C (dose: 50.0 mg/kg/injection, schedule: Q04DX003 (sc), vehicle: Klucel (hydroxypropylcellulose) (HPC)) was 47 % of control and the T/C (dose: 100.0 mg/kg/injection, schedule: Q04DX003 (sc), vehicle: Klucel (hydroxypropylcellulose) (HPC)) was 7 % of control and 15 % of control. The T/C [5] was 4 % of control and 29 % of control and the T/C [6] was -61 % of control.

With `[O-][n+]1c(CN2CCCCC2)nc2cccc3c2c1-c1ccccc1-3` the T/C [1] was 82 % of control, the T/C [2] was 68 % of control and the T/C [3] was 77 % of control. For the same molecule, the T/C [4] was 109 % of control.

With `CCCCc1ccc2nc(NC(=O)OC)[nH]c2c1` the T/C (dose: 100.0 mg/kg/injection, schedule: Q01DX010 (sc), vehicle: saline with Tween-80) was 53 % of control and 78 % of control and the T/C (dose: 1600.0 mg/kg/injection, schedule: Q01DX010 (sc), vehicle: saline with Tween-80) was 84 % of control.

`CN(C)c1ccc2c(N(C)C)cc(N(C)C)nc2c1` was tested, and the T/C (dose: 9.38 mg/kg/injection, schedule: Q04DX003 (sc), vehicle: Klucel (hydroxypropylcellulose) (HPC)) was 102 % of control, the T/C (dose: 18.75 mg/kg/injection, schedule: Q04DX003 (sc), vehicle: Klucel (hydroxypropylcellulose) (HPC)) was 123 % of control and the T/C (dose: 37.5 mg/kg/injection, schedule: Q04DX003 (sc), vehicle: Klucel (hydroxypropylcellulose) (HPC)) was 96 % of control. The T/C (dose: 75.0 mg/kg/injection, schedule: Q04DX003 (sc), vehicle: Klucel (hydroxypropylcellulose) (HPC)) was 154 % of control.

`COc1cccc2c1C(=O)c1c(O)c3c(c(O)c1C2=O)C[C@@](O)(C(=O)CO)C[C@@H]3OC1CC(N)CC(C)O1` (stereo partly drawn) was tested, and the T/C (dose: 1.5 mg/kg/injection, schedule: Q01DX010 (sc), vehicle: water) was 23 % of control.

In the case of `NC1=NCN(C2OC(CO)C(O)C2O)C(=O)N1` (stereo not drawn), the T/C (dose: 25.0 mg/kg/injection, schedule: Q01DX010 (sc), vehicle: saline) is reported as 117 % of control, the T/C (dose: 50.0 mg/kg/injection, schedule: Q01DX010 (sc), vehicle: saline) is reported as 174 % of control and the T/C (dose: 83.3 mg/kg/injection, schedule: Q04DX003 (ip), vehicle: saline) is reported as 117 % of control. The T/C (dose: 100.0 mg/kg/injection, schedule: Q01DX010 (ip), vehicle: saline) was 62 % of control, the T/C (dose: 100.0 mg/kg/injection, schedule: Q01DX010 (sc), vehicle: saline) was 86 % of control and the T/C (dose: 166.66 mg/kg/injection, schedule: Q04DX003 (ip), vehicle: saline) was 89 % of control. For the same molecule, the T/C (dose: 333.33 mg/kg/injection, schedule: Q04DX003 (ip), vehicle: saline) was 56 % of control and the T/C (dose: 666.65 mg/kg/injection, schedule: Q04DX003 (ip), vehicle: saline) was 39 % of control.

`COc1cc2cc(c1Cl)N(C)C(=O)CC(OC(=O)CC(C)C)C1(C)OC1C(C)C1CC(O)(NC(=O)O1)C(OC)/C=C/C=C(C)C2` (stereo not drawn) was tested, and the T/C (dose: 12.5 micrograms/kg/injection, schedule: Q01DX010 (sc), vehicle: saline + alcohol) was 73 % of control, the T/C (dose: 25.0 micrograms/kg/injection, schedule: Q01DX010 (sc), vehicle: saline + alcohol) was 59 % of control and the T/C (dose: 50.0 micrograms/kg/injection, schedule: Q01DX010 (sc), vehicle: saline + alcohol) was 107 % of control.

`COc1cccc2c1C(=O)c1c(O)c3c(c(O)c1C2=O)C[C@@](O)(/C(C)=N\O)C[C@@H]3OC1CC(N)C(O)C(C)O1` (stereo partly drawn) was tested, and the T/C (dose: 25.0 mg/kg/injection, schedule: Q04DX003 (sc), vehicle: saline) was 95 % of control and the T/C (dose: 50.0 mg/kg/injection, schedule: Q04DX003 (sc), vehicle: saline) was 76 % of control.

For `Nc1nc(N)c2c(Cl)c(CNc3ccc(Cl)c(Cl)c3)ccc2n1`, the T/C [8] was 111 % of control.

In the case of `CSC1SCC2C(=O)N(C)C(C(C)C)C(=O)OCC(NC(=O)c3cnc4ccccc4n3)C(=O)NC(C)C(=O)N(C)C1C(=O)N(C)C(C(C)C)C(=O)OCC(NC(=O)c1cnc3ccccc3n1)C(=O)NC(C)C(=O)N2C` (stereo not drawn), the T/C (dose: 15.0 micrograms/kg/injection, schedule: Q01DX010 (sc), vehicle: saline) is reported as 97 % of control, the T/C (dose: 30.0 micrograms/kg/injection, schedule: Q01DX010 (sc), vehicle: saline) is reported as 71 % of control and the T/C (dose: 60.0 micrograms/kg/injection, schedule: Q01DX010 (sc), vehicle: saline) is reported as 48 % of control. For the same molecule, the T/C (dose: 120.0 micrograms/kg/injection, schedule: Q01DX010 (sc), vehicle: saline) was 36 % of control and the T/C (dose: 240.0 micrograms/kg/injection, schedule: Q01DX010 (sc), vehicle: saline) was 65 % of control.

With `Cc1cc(NCCCCCCNc2cc(C)nc3cc(N(C)C)ccc23)c2ccc(N(C)C)cc2n1` the T/C (dose: 75.0 mg/kg/injection, schedule: Q04DX003 (sc), vehicle: distilled water + Tween-80 + alcohol) was 46 % of control and the T/C (dose: 150.0 mg/kg/injection, schedule: Q04DX003 (sc), vehicle: distilled water + Tween-80 + alcohol) was 44 % of control.

For `ClC1=C(Cl)C(Cl)=C(Cl)C1=Cc1ccccc1`, the T/C (dose: 50.0 mg/kg/injection, schedule: Q04DX003 (sc), vehicle: saline with Tween-80) was 96 % of control, the T/C (dose: 200.0 mg/kg/injection, schedule: Q04DX003 (sc), vehicle: saline with Tween-80) was 91 % of control and the T/C [9] was 105 % of control.

`NC(=S)c1ncn(C2OC(CO)C(O)C2O)c1N` (stereo not drawn) was tested, and the T/C (dose: 150.0 mg/kg/injection, schedule: Q04DX003 (sc), vehicle: suspension in saline) was 87 % of control, the T/C (dose: 300.0 mg/kg/injection, schedule: Q04DX003 (sc), vehicle: suspension in saline) was 102 % of control and the T/C (dose: 600.0 mg/kg/injection, schedule: Q04DX003 (sc), vehicle: suspension in saline) was 98 % of control. For the same molecule, the T/C (dose: 1200.0 mg/kg/injection, schedule: Q04DX003 (sc), vehicle: suspension in saline) was 103 % of control.

For `O=P1(NCCCl)OCCCN1CCCl` (stereo not drawn), the T/C [7] was 93 % of control and the T/C (dose: 150.0 mg/kg/injection, schedule: Q04DX003 (sc), vehicle: saline) was 109 % of control.

In the case of `BrC[P+](CBr)(CBr)CBr`, the T/C [9] is reported as 156 % of control.
